In PubChem BioAssay AID248 (DTP/NCI, 2004):
Values joined by “and” are separate entries in the source; they are usually repeats but may differ in a detail not shown here. Equal values may be shown once. Toxic doses and inconclusive results are not listed. Rule as the data show it: active = T/C of 150% or more; inactive = T/C below 125%.

System: L1210 leukemia ip in BDF1 mice, survival T/C
Experiment: NCI In Vivo Anticancer Drug Screen. Data for tumor model L1210 Leukemia (intraperitoneal) in B6D2F1 (BDF1) mice
Conditions: endpoint: mean survival time, higher = longer survival
Summary of the method: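 Tumor was transplanted into mice, which were then dosed with test compound or vehicle alone. Survival was recorded for each group, and the treated figure was expressed relative to the control figure.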

[1] = dose: 100.0 mg/kg/injection, schedule: Q01DX009 (ip), vehicle: saline with Tween-80
[2] = dose: 100.0 mg/kg/injection, schedule: Q04DX003 (ip), vehicle: saline with Tween-80
[3] = dose: 200.0 mg/kg/injection, schedule: Q01DX009 (ip), vehicle: saline with Tween-80
[4] = dose: 400.0 mg/kg/injection, schedule: Q01DX009 (ip), vehicle: saline with Tween-80
[5] = dose: 100.0 mg/kg/injection, schedule: Q01DX001 (ip), vehicle: carboxymethylcellulose (CMC)
[6] = dose: 200.0 mg/kg/injection, schedule: Q01DX001 (ip), vehicle: carboxymethylcellulose (CMC)
[7] = dose: 400.0 mg/kg/injection, schedule: Q01DX001 (ip), vehicle: carboxymethylcellulose (CMC)
[8] = dose: 100.0 mg/kg/injection, schedule: Q01DX001 (ip), vehicle: saline
[9] = dose: 200.0 mg/kg/injection, schedule: Q01DX001 (ip), vehicle: saline
[10] = dose: 100.0 mg/kg/injection, schedule: Q01DX009 (ip), vehicle: Klucel (hydroxypropylcellulose) (HPC)
[11] = dose: 100.0 mg/kg/injection, schedule: Q04DX003 (ip), vehicle: Klucel (hydroxypropylcellulose) (HPC)
[12] = dose: 200.0 mg/kg/injection, schedule: Q01DX009 (ip), vehicle: Klucel (hydroxypropylcellulose) (HPC)
[13] = dose: 200.0 mg/kg/injection, schedule: Q04DX003 (ip), vehicle: Klucel (hydroxypropylcellulose) (HPC)
[14] = dose: 400.0 mg/kg/injection, schedule: Q01DX009 (ip), vehicle: Klucel (hydroxypropylcellulose) (HPC)
[15] = dose: 400.0 mg/kg/injection, schedule: Q04DX003 (ip), vehicle: Klucel (hydroxypropylcellulose) (HPC)
[16] = dose: 25.0 mg/kg/injection, schedule: Q01DX009 (ip), vehicle: Klucel (hydroxypropylcellulose) (HPC)
[17] = dose: 50.0 mg/kg/injection, schedule: Q01DX009 (ip), vehicle: Klucel (hydroxypropylcellulose) (HPC)
[18] = dose: 50.0 mg/kg/injection, schedule: Q04DX003 (ip), vehicle: Klucel (hydroxypropylcellulose) (HPC)
[19] = dose: 50.0 mg/kg/injection, schedule: Q01DX009 (ip), vehicle: saline with Tween-80
[20] = dose: 400.0 mg/kg/injection, schedule: Q01DX001 (ip), vehicle: saline
[21] = dose: 100.0 mg/kg/injection, schedule: Q04DX003 (ip), vehicle: saline
[22] = dose: 200.0 mg/kg/injection, schedule: Q04DX003 (ip), vehicle: saline
[23] = dose: 400.0 mg/kg/injection, schedule: Q04DX003 (ip), vehicle: saline

Measured: T/C

O=C(/C=C/c1ccc(Cl)cc1Cl)c1ccc(Cl)cc1
inactive: [1] 105 % of control | [2] 95 % of control | [3] 90 % of control | dose: 200.0 mg/kg/injection, schedule: Q04DX003 (ip), vehicle: saline with Tween-80 93 % of control | [4] 90 % of control | dose: 400.0 mg/kg/injection, schedule: Q04DX003 (ip), vehicle: saline with Tween-80 88 % of control

O/N=C/c1ccc(Cc2ccccc2)o1
inactive: dose: 75.0 mg/kg/injection, schedule: Q01DX001 (ip), vehicle: carboxymethylcellulose (CMC) 97 % of control | dose: 150.0 mg/kg/injection, schedule: Q01DX001 (ip), vehicle: carboxymethylcellulose (CMC) 100 % of control | dose: 300.0 mg/kg/injection, schedule: Q01DX001 (ip), vehicle: carboxymethylcellulose (CMC) 96 % of control

CCS(=O)(=O)c1ccc(NC(=O)OCc2ccccc2)cc1
inactive: [5] 94 % of control | [6] 94 % of control | [7] 92 % of control

CNC(=S)N/N=C/c1cnccn1
inactive: dose: 50.0 mg/kg/injection, schedule: Q01DX001 (ip), vehicle: saline 100 % of control | [8] 100 % of control | [9] 104 % of control

CC(=O)Nc1ccc2ccccc2c1Br
inactive: [10] 104 % of control | [11] 95 % of control | [12] 103 % of control | [13] 95 % of control | [14] 119 % of control | [15] 95 % of control

SCCS
inactive: dose: 50.0 mg/kg/injection, schedule: Q04DX002 (ip), vehicle: saline with Tween-80 101 % of control | dose: 100.0 mg/kg/injection, schedule: Q04DX002 (ip), vehicle: saline with Tween-80 101 % of control | dose: 200.0 mg/kg/injection, schedule: Q04DX002 (ip), vehicle: saline with Tween-80 86 % of control

CCCCNC(C)(C)C(SSSC(c1ccc(Cl)cc1)C(C)(C)NCCCC)c1ccc(Cl)cc1 (configuration not stated)
inactive: dose: 12.0 mg/kg/injection, schedule: Q01DX009 (ip), vehicle: Klucel (hydroxypropylcellulose) (HPC) 104 % of control | [16] 100 % of control | [17] 100 % of control

CCC(C)[n+]1cc([O-])on1 (configuration not stated)
inactive: dose: 12.5 mg/kg/injection, schedule: Q01DX009 (ip), vehicle: Klucel (hydroxypropylcellulose) (HPC) 98 % of control | [16] 98 % of control | [17] 95 % of control

COc1ccc(NC(=O)c2cccc([N+](=O)[O-])c2)cc1
inactive: [10] 96 % of control | [12] 93 % of control | [14] 96 % of control

O=C(COc1ccc(Cl)cc1Cl)NCCSCc1ccccc1
inactive: [10] 91 % of control | [14] 89 % of control

O=C1NC(=O)C2(CCCCCCC2)N1
inactive: [17] 104 % of control | [18] 111 % of control | [10] 96 % of control | [11] 99 % of control | [12] 96 % of control | [13] 103 % of control

CSc1ncc(C(=O)O)c(=O)[nH]1
inactive: [17] 95 % of control | [10] 88 % of control and 90 % of control | [11] 104 % of control | [12] 94 % of control | [13] 101 % of control | [14] 88 % of control | [15] 102 % of control

CCCNC1(C(N)=O)CCN(Cc2ccccc2)CC1
inactive: dose: 25.0 mg/kg/injection, schedule: Q01DX009 (ip), vehicle: saline with Tween-80 93 % of control | dose: 25.0 mg/kg/injection, schedule: Q04DX003 (ip), vehicle: saline with Tween-80 97 % of control | [19] 95 % of control | dose: 50.0 mg/kg/injection, schedule: Q04DX003 (ip), vehicle: saline with Tween-80 97 % of control | [1] 91 % of control | [2] 97 % of control and 101 % of control

Nc1nc2c(ncn2C2OC(CO)C(O)C2O)c(=O)n1N (configuration not stated)
inactive: [8] 102 % of control | [9] 101 % of control | [20] 95 % of control

Brc1ccc(N=Cc2ccc3c(c2)OCO3)cc1
inactive: dose: 100.0 mg/kg/injection, schedule: Q04DX003 (ip), vehicle: gum acacia 96 % of control | dose: 200.0 mg/kg/injection, schedule: Q04DX003 (ip), vehicle: gum acacia 95 % of control | dose: 400.0 mg/kg/injection, schedule: Q04DX003 (ip), vehicle: gum acacia 90 % of control

CCCCOB1OC(c2ccccc2)(c2ccccc2)c2ccccc2C(c2ccccc2)(c2ccccc2)O1
inactive: [5] 91 % of control | [6] 91 % of control | [7] 98 % of control

Nn1c(=O)[nH][nH]c1=O
inactive: [10] 113 % of control | [11] 97 % of control and 109 % of control | [12] 97 % of control | [13] 105 % of control and 91 % of control | [15] 109 % of control

O=C(O)C1C(=O)OC2CCCCC21 (configuration not stated)
inactive: [19] 88 % of control | [1] 88 % of control | [3] 95 % of control

CCC[N+](=CC1CCCCC1)CCC
inactive: [21] 104 % of control | [22] 95 % of control | [23] 91 % of control

CCCCCCCCC1SC1CCCCCCCCOC(=O)CCCCCCCC1SC1CCCCCCCC (configuration not stated)
inactive: [1] 101 % of control | [3] 93 % of control | [4] 91 % of control

NNCCc1ccccc1
inactive: dose: 6.25 mg/kg/injection, schedule: Q01DX009 (ip), vehicle: saline 105 % of control | dose: 12.5 mg/kg/injection, schedule: Q01DX009 (ip), vehicle: saline 101 % of control | dose: 25.0 mg/kg/injection, schedule: Q01DX009 (ip), vehicle: saline 95 % of control | dose: 25.0 mg/kg/injection, schedule: Q04DX003 (ip), vehicle: saline 120 % of control | dose: 50.0 mg/kg/injection, schedule: Q01DX009 (ip), vehicle: saline 104 % of control | dose: 50.0 mg/kg/injection, schedule: Q04DX003 (ip), vehicle: saline 106 % of control | [21] 111 % of control

CCN(CC)C(=O)CBr
inactive: dose: 50.0 mg/kg/injection, schedule: Q01DX001 (ip), vehicle: Klucel (hydroxypropylcellulose) (HPC) 99 % of control | dose: 100.0 mg/kg/injection, schedule: Q01DX001 (ip), vehicle: Klucel (hydroxypropylcellulose) (HPC) 99 % of control | dose: 200.0 mg/kg/injection, schedule: Q01DX001 (ip), vehicle: Klucel (hydroxypropylcellulose) (HPC) 97 % of control

CCOC(=O)c1ccc(OC)nc1
inactive: dose: 100.0 mg/kg/injection, schedule: Q01DX009 (ip), vehicle: saline 104 % of control | dose: 200.0 mg/kg/injection, schedule: Q01DX009 (ip), vehicle: saline 102 % of control | dose: 400.0 mg/kg/injection, schedule: Q01DX009 (ip), vehicle: saline 98 % of control

Nc1ncnc(Nc2ccccc2Oc2ccccc2)n1
inactive: [5] 97 % of control | [6] 92 % of control | [7] 86 % of control

CCOC(=O)C(O)(C(=O)OCC)C1C(=O)c2ccccc2C1=O
inactive: [18] 91 % of control | [11] 98 % of control | [13] 99 % of control

O=N[O-].O=N[O-].O=N[O-].[Co+3].[NH2-].[NH2-].[NH2-]
inactive: [8] 92 % of control | [21] 119 % of control | [9] 90 % of control | [22] 105 % of control | [20] 97 % of control | [23] 97 % of control
